Source: patent publication US6764829B2, “Nucleoside hydrolase and nucleoside phosphorylase detection kits, dipsticks and substrates” (Albert Einstein College of Medicine of Yeshiva University, priority 1996, dated 2004)
Like-named read-outs stand apart in the source and are kept apart here.

Columns and labels:
IU-nucleoside hydrolase = molecular target: T1, IU-nucleoside hydrolase (Crithidia fasciculata, UniProt Q27546); test: Comparison of β-D-ribofuranoside substrates with IU-nucleoside hydrolase (Table 3); format: biochemical; conditions: for Km: read-out: IU NH Km
T1 sequence (Q27546 1-315): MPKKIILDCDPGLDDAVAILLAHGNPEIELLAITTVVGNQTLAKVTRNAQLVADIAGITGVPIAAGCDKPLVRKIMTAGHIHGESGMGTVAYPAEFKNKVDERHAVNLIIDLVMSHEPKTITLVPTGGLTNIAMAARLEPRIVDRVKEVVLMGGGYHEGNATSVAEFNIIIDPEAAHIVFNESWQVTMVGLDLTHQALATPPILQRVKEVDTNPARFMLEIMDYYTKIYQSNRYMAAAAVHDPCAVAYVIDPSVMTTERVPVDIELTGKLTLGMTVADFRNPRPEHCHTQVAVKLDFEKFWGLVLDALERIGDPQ
Method: (§1) The enzymes used were highly purified samples from Crithidia fasciculata (IU-nucleoside hydrolase) and Trypanosoma brucei brucei (IAG-nucleoside hydrolase), available as stock solutions of approximately 20 mg protein/mL.
(§2) Each reaction was conducted in a quartz cuvette with a 1 cm path length, placed in the observation chamber of a UV spectrophotometer, and in a total reaction volume of 600 μL. The temperature was adjusted by use of a circulating water bath, set so that the cuvette temperature equilibrated to 30° C. in about 5 minutes.
(§3) The β-D-ribofuranoside substrates were dissolved in aqueous buffer: 50 mM CHES for reactions at pH 10, 50 mM HEPES for reactions at pH 8. […] For the remaining reactions catalysed by IAG hydrolase, a single substrate concentration of between 100 and 300 μM was used.
(§4) The absorbance of each reaction mixture was monitored at or near the absorption maximum for the phenolic aglycon (as shown in Table 3). Monitoring began 5-10 minutes before the enzyme was added to determine if the substrate was stable under the reaction conditions.
(§5) Data were fitted to the Michaelis-Menton equation using kaleidagraph, and the resulting kinetic parameters along with other relevant data are summarized in Table 3.

IAG-nucleoside hydrolase = molecular target: T2, IAG-nucleoside hydrolase (Trypanosoma brucei, UniProt Q57ZL6); test: Comparison of β-D-ribofuranoside substrates with IAG-nucleoside hydrolase (Table 3); format: biochemical; conditions: for IAG NH rate: at 200 μM substrate
T2 sequence (Q57ZL6 1-327): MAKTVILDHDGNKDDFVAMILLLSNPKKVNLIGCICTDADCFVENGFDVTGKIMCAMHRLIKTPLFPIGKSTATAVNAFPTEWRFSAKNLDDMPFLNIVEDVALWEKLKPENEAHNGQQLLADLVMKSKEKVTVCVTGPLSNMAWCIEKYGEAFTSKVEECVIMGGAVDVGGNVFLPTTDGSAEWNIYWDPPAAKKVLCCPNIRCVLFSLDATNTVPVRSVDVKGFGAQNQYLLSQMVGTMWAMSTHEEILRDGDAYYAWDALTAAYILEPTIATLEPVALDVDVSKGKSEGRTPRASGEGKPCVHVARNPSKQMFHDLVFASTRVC
Method: as §1, §2, §3, §4, §5

[1] = tested on: Giardia intestinalis (Portland 1 strain); test: Hydrolysis of substrates by Giardia intestinalis supernatants; format: biochemical; conditions: 0.24 mM substrate, 50 mM HEPES pH 8
Method: Giardia intestinalis (Portland 1 strain) was grown for 2 days in TYI-33 medium supplemented with 5 mM arginine, harvested and washed. A suspension containing 2.91×10^8 cells of Giardia intestinalis in 1 mL of aqueous HEPES buffer (40 mM. pH 7) was mixed with 1 mL of aqueous HEPES buffer (40 mM, pH 7) containing 0.1 mM protease inhibitor E-64 and sonicated (Branson sonicator, duty cycle 40, output 2.5), for 2-3 min in ice. The suspension was then centrifuged in a Beckman microfuge for 10 mins at 4° C., and the supernatant decanted.
A second suspension of 2.91×10^8 cells of Giardia intestinalis in 1 mL of aqueous HEPES buffer (40 mM, pH 7) was mixed with 1 mL of 0.5% aqueous Triton X-100, left at 4° C. overnight, and the supernatant was decanted.
Aliquots (between 2 and 100 μL) of each of these supernatants were made up to a volume of 1 mL of water containing 50 mM HEPES buffer at pH 8, 0.24 mM 4-nitrophenyl β-D-ribofuranoside or 4-pyridyl β-D-ribofuranoside. The release of the aglycon was monitored by absorption spectrometry at 400 nm or 253 nm, respectively.
Protein was determined by Lowry method (ie Folin reaction).

T. vaginalis = test: Hydrolysis of substrates by T. vaginalis extract; format: biochemical; conditions: Triton X-100 extract; determined as in Example 24
Method: T. vaginalis was grown for 2 days in TYM medium, harvested, and washed. […] The ability of the extract to hydrolyse substrates was determined as in Example 24. For 4-nitrophenyl β-D-ribofuranoside, the activity was 165 nmoles.min^−1 per 10^8 cells, corresponding to an activity for the enzyme of 9 nmoles.min^−1.(mg protein)^−1. For 4-pyridyl β-D-ribofuranoside, the activity was 74 nmoles.min^−1 per […] corresponding to an activity for the enzyme of 4 nmoles.min^−1.(mg protein)^−1.

AMP nucleosidase = AMP nucleosidase (Escherichia coli, UniProt P0AE12); test: Kinetic parameters with nitrophenylriboside 5-phosphate and purine substrate (Table 1); format: biochemical, E coli
Sequence of AMP nucleosidase (P0AE12 whole entry): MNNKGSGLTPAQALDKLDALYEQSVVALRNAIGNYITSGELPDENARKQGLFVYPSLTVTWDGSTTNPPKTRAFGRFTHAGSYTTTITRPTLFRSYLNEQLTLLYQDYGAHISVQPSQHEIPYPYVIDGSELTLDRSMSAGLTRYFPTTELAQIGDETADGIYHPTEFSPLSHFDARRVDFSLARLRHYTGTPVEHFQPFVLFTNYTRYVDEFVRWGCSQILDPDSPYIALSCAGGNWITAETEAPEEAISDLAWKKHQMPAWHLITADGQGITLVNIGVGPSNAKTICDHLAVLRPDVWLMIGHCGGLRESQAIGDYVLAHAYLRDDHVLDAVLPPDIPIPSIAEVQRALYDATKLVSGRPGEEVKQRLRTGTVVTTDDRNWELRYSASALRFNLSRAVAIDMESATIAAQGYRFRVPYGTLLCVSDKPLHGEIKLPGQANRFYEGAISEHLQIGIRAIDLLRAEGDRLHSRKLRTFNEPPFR
Description: (§6) In this Example kinetic parameters for different enzymes were compared using nitrophenylriboside or a purine substrate. […] The E. coli and bovine spleen enzymes tested were ineffective in hydrolysing the substrate. The striking ability of one of the protozoan parasite enzymes to hydrolyse the substrate provides the basis for an assay for the protozoan parasites (see Example 22).

[2] = substrate: O=[N+]([O-])c1ccc(O[C@@H]2O[C@H](CO)[C@@H](O)[C@H]2O)cc1; test: Kinetic parameters (phosphorolysis) with nitrophenylriboside and purine substrate (Table 1); format: biochemical, bovine; conditions: other: nitrophenylriboside as substrate, pH 8.0 in 50 mM HEPES, 30° C., 3 mM phosphate
Description: as §6

[3] = substrate: O=[N+]([O-])c1ccc(O[C@@H]2O[C@H](CO)[C@@H](O)[C@H]2O)cc1; test: Kinetic parameters with nitrophenylriboside and purine substrate (Table 1); format: biochemical, Trypanosoma brucei brucei; conditions: other: nitrophenylriboside as substrate, pH 8.0 in 50 mM HEPES, 30° C.
Description: as §6

[4] = substrate: O=[N+]([O-])c1ccc(O[C@@H]2O[C@H](CO)[C@@H](O)[C@H]2O)cc1; test: Comparison of β-D-ribofuranoside substrates with IAG-nucleoside hydrolase (Table 3); format: biochemical, Trypanosoma brucei brucei; conditions: other: At pH 10, 30.0 °C
Method: as §1, §2, §3, §4, §5

[5] = substrate: OC[C@H]1O[C@@H](Oc2ccncc2)[C@H](O)[C@@H]1O; test: as above; format: biochemical, Trypanosoma brucei brucei; conditions: other: At pH 10, 30.0 °C
Method: as §1, §2, §3, §4, §5

[6] = nitrophenylriboside 5-phosphate as substrate, pH 8.0 in 50 mM HEPES, 30° C., MgATP 100 μM

## O=[N+]([O-])c1ccccc1O[C@@H]1O[C@H](CO)[C@@H](O)[C@H]1O [Example 9, 2-nitrophenyl β-D-ribofuranoside]
IU-nucleoside hydrolase
  substrate quality in words: good substrates
IAG-nucleoside hydrolase; pH 10.0
  IAG NH rate: 0.15 min⁻¹

## O=C1OC(c2ccc(O)cc2)(c2ccc(O[C@@H]3O[C@H](CO)[C@@H](O)[C@H]3O)cc2)c2ccccc21 (stereo partly drawn) [Example 7, 3-(4-hydroxyphenyl)-1(3H)-isobenzofuranone-3-(phen-4-yl) β-D-ribofuranoside]
IU-nucleoside hydrolase; At pH 10, at 200 μM
  IU NH kcat: 10 at sec^−1
IAG-nucleoside hydrolase; pH 8.0
  IAG NH rate: <0.01 min⁻¹
IAG-nucleoside hydrolase; pH 10.0
  IAG NH rate: <0.01 min⁻¹

## Cc1cc(=O)oc2cc(O[C@@H]3O[C@H](CO)[C@@H](O)[C@H]3O)ccc12 [Example 10, 4-methylcoumarin-7-yl β-D-ribofuranoside]
IU-nucleoside hydrolase
  substrate quality in words: good substrates
IAG-nucleoside hydrolase; pH 10.0
  IAG NH rate: 0.003 min⁻¹

## β-D-ribofuranoside of Luminol [Example 15]
IU-nucleoside hydrolase; At pH 10, 30° C.
  IU NH kcat: 163 s⁻¹
  Km: 133 µM
IAG-nucleoside hydrolase; pH 8.0
  IAG NH rate: <0.01 min⁻¹
IAG-nucleoside hydrolase; pH 10.0
  IAG NH rate: <0.03 min⁻¹

## OC[C@H]1O[C@@H](Oc2ccncc2)[C@H](O)[C@@H]1O [Example 12, 4-pyridyl β-D-ribofuranoside]
IU-nucleoside hydrolase
  substrate quality in words: good substrates
IU-nucleoside hydrolase; listed as 4-pyridyl riboside
  substrate quality in words: lower activity
IAG-nucleoside hydrolase
  substrate quality in words: good substrates
IAG-nucleoside hydrolase; listed as 4-pyridyl riboside
  substrate quality in words: substantially greater activity
[1]
  activity per cells: 210 nmoles.min^−1 per 10^8 cells
[1]; protein by Lowry method
  activity for the enzyme: 31 nmoles.min^−1.(mg protein)^−1
T. vaginalis
  activity for the enzyme: 4 nmoles.min^−1.(mg protein)^−1
  activity per cells: 74 nmoles.min^−1 per 10^−8 cells

## Nc1ccc(O[C@@H]2O[C@H](CO)[C@@H](O)[C@H]2O)cc1 [Example 6, p-aminophenyl β-D-ribofuranoside]
IU-nucleoside hydrolase; At pH 10, 30° C.
  IU NH kcat: <0.01 s⁻¹

## nitrophenylriboside 5-phosphate
AMP nucleosidase; kcat/Km for the nitrophenyl substrate to that for AMP
  kcat/Km ratio: 3 × 10^−7
AMP nucleosidase; [6]
  Km: 6250 µM
  kcat: 0.0004 s⁻¹

## Nc1cccc(O[C@@H]2O[C@H](CO)[C@@H](O)[C@H]2O)c1 [Example 4, 3-aminophenyl β-D-ribofuranoside]
IU-nucleoside hydrolase
  Ki: 72 µM
IU-nucleoside hydrolase; At pH 10, at 1240 μM
  IU NH kcat: 0.7 s⁻¹
IAG-nucleoside hydrolase; pH 10.0
  IAG NH rate: <0.02 min⁻¹

## OC[C@H]1O[C@@H](Oc2cccc3ncccc23)[C@H](O)[C@@H]1O [Example 14, 5-quinolyl β-D-ribofuranoside]
IAG-nucleoside hydrolase; pH 8.0
  IAG NH rate: 0.16 min⁻¹
IAG-nucleoside hydrolase; pH 10.0
  IAG NH rate: <0.01 min⁻¹

## NC(=O)c1ccc(O[C@@H]2O[C@H](CO)[C@@H](O)[C@H]2O)nc1 [Example 19, 3-carboxamido-6-pyridyl β-D-ribofuranoside]
IU-nucleoside hydrolase
  substrate quality in words: good substrates
IU-nucleoside hydrolase; At pH 10, 30° C.
  IU NH kcat: 141 s⁻¹
  Km: 369 µM
IAG-nucleoside hydrolase
  substrate quality in words: good substrates
IAG-nucleoside hydrolase; pH 8.0
  IAG NH rate: >100 min⁻¹
IAG-nucleoside hydrolase; pH 10.0
  IAG NH rate: 24 min⁻¹

## O=C1CCCc2c(O[C@@H]3O[C@H](CO)[C@@H](O)[C@H]3O)cccc21 [Example 5, 1-tetralone-5-yl β-D-ribofuranoside]
IU-nucleoside hydrolase; At pH 10, at 200 μM
  IU NH kcat: 0.5 s⁻¹
IAG-nucleoside hydrolase; pH 8.0
  IAG NH rate: <0.01 min⁻¹
IAG-nucleoside hydrolase; pH 10.0
  IAG NH rate: <0.01 min⁻¹

## OC[C@H]1O[C@@H](Oc2cccc3ccccc23)[C@H](O)[C@@H]1O [Example 2, α-naphthyl β-D-ribofuranoside]
IU-nucleoside hydrolase
  Ki: 7.3 µM
IU-nucleoside hydrolase; At pH 10, at 250 μM
  IU NH kcat: .009 s⁻¹
IAG-nucleoside hydrolase; pH 10.0
  IAG NH rate: <0.05 min⁻¹

## OC[C@H]1O[C@@H](Oc2cccnc2)[C@H](O)[C@@H]1O [Example 11, 3-pyridyl β-D-ribofuranoside]
IAG-nucleoside hydrolase; pH 10.0
  IAG NH rate: 0.01 min⁻¹

## O=Cc1ccc(O[C@@H]2O[C@H](CO)[C@@H](O)[C@H]2O)cc1 [Example 20, 4-formylphenyl β-D-ribofuranoside]
IAG-nucleoside hydrolase; pH 10.0
  IAG NH rate: 0.01 min⁻¹

## O=C(Nc1cccc(O[C@@H]2O[C@H](CO)[C@@H](O)[C@H]2O)c1)C(F)(F)F [Example 3, 3-trifluoroacetamidophenyl β-D-ribofuranoside]
IU-nucleoside hydrolase
  Ki: 27.7 µM

B1: Purine nucleoside phosphorylase (Bos taurus) (protein)
chain: MANGYTYEDYQDTAKWLLSHTEQRPQVAVICGSGLGGLVNKLTQAQTFDYSEIPNFPESTVPGHAGRLVFGILNGRACVMMQGRFHMYEGYPFWKVTFPVRVFRLLGVETLVVTNAAGGLNPNFEVGDIMLIRDHINLPGFSGENPLRGPNEERFGVRFPAMSDAYDRDMRQKAHSTWKQMGEQRELQEGTYVMLGGPNFETVAECRLLRNLGADAVGMSTVPEVIVARHCGLRVFGFSLITNKVIMDYESQGKANHEEVLEAGKQAAQKLEQFVSLLMASIPVSGHTG
notes: The E. coli and bovine spleen enzymes tested; from tissue; host or cells: bovine spleen
[2]
  Km: 224 µM
  kcat: 0.0002 s⁻¹
  kcat/Km: 0.89 M⁻¹ s⁻¹

B2: IAG-nucleoside hydrolase (Trypanosoma brucei brucei TREU927) (protein)
chain: MAKTVILDHDGNKDDFVAMILLLSNPKKVNLIGCICTDADCFVENGFDVTGKIMCAMHRLIKTPLFPIGKSTATAVNAFPTEWRFSAKNLDDMPFLNIVEDVALWEKLKPENEAHNGQQLLADLVMKSKEKVTVCVTGPLSNMAWCIEKYGEAFTSKVEECVIMGGAVDVGGNVFLPTTDGSAEWNIYWDPPAAKKVLCCPNIRCVLFSLDATNTVPVRSVDVKGFGAQNQYLLSQMVGTMWAMSTHEEILRDGDAYYAWDALTAAYILEPTIATLEPVALDVDVSKGKSEGRTPRASGEGKPCVHVARNPSKQMFHDLVFASTRVC
[3]
  Km: 560 µM
  kcat: 0.82 s⁻¹
  kcat/Km: 1500 M⁻¹ s⁻¹
[4]
  Km: 529 µM
  kcat: 0.00317 s⁻¹
[5]
  Km: 306 µM
  kcat: 12 s⁻¹
